Data reported in US20070049593A1 (priority 2004, published 2007).
Counter-ions that a name gives are not always drawn.

Biological target: T1, HCV polymerase (Hepatitis C virus genotype 1b, UniProt P26663)
T1 construct: a region encoding NS5B (J Virol 1991 March, 65(3), 1105-13, 544 amino acids after deletion of 47 amino acids on the C-terminal); 6xHis (C); made in house; host or cells: Escherichia coli
Test: biochemical
Parameters: species or system HCV BK strain
Conditions: not given
Outline: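 Recombinant HCV BK-strain NS5B (C-terminal 47 aa deleted, His6-tagged, E. coli), 0.5 μg/ml, run with 5 μg/ml in vitro-transcribed RNA template (polyU/3′X), ATP/GTP/CTP 50 μM, UTP 2 μM plus [3H]UTP, pH 7.5, 25° C, 90 min. TCA-precipitated RNA counted by scintillation; IC50 from activity with vs without compound.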

T1 sequence (P26663 2420-2963): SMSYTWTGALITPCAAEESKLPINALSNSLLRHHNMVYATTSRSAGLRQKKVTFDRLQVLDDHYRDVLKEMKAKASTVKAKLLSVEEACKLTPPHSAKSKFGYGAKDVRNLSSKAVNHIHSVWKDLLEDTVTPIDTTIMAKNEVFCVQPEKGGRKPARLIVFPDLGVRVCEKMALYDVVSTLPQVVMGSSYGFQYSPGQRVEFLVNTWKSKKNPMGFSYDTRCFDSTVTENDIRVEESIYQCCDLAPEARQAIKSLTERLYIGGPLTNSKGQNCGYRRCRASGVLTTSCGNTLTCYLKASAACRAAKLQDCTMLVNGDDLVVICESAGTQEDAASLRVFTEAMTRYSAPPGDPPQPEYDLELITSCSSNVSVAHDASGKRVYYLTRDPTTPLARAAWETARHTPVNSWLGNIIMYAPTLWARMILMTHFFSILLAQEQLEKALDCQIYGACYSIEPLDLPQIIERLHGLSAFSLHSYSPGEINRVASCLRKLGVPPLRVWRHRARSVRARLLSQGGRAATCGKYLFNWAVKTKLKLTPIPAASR

| SMILES | IC50 [nM] |
| --- | --- |
| Cc1ccc2c(c1)N(CCC1CCCN(C)C1)CCn1c-2c(C2CCCCC2)c2ccc(C(=O)O)cc21 (centres unmarked) [Example 1-274, 13-cyclohexyl-3-methyl-5-[2-(1-methylpiperidin-3-yl)ethyl]-6,7-dihydro-5H-benzo[5,6][1,4]diazepino[7,1-a]indole-10-carboxylic acid dihydrochloride] | < 100 |
| Cc1ccc2c(c1)N(CCC1CCCN(C(C)C)C1)CCn1c-2c(C2CCCCC2)c2ccc(C(=O)O)cc21 (centres unmarked) [Example 1-275, 13-cyclohexyl-5-[2-(1-isopropylpiperidin-3-yl)ethyl]-3-methyl-6,7-dihydro-5H-benzo[5,6][1,4]diazepino[7,1-a]indole-10-carboxylic acid dihydrochloride] | < 100 |
| CCOc1ccc2c(c1)N(CCN1CCCCC1)CCn1c-2c(C2CCCCC2)c2ccc(C(=O)O)cc21 [Example 1-276, 13-cyclohexyl-3-ethoxy-5-[2-(piperidin-1-yl)ethyl]-6,7-dihydro-5H-benzo[5,6][1,4]diazepino[7,1-a]indole-10-carboxylic acid dihydrochloride] | < 100 |
| O=C(O)c1ccc2c(C3CCCCC3)c3n(c2c1)CCN(CCN1CCCCCCC1)c1cc(Cl)ccc1-3 [Example 1-277, 5-[2-(azocan-1-yl)ethyl]-3-chloro-13-cyclohexyl-6,7-dihydro-5H-benzo[5,6][1,4]diazepino[7,1-a]indole-10-carboxylic acid dihydrochloride] | < 100 |
| Cc1ccc2c(c1)N(CCN1CCCCCCC1)CCn1c-2c(C2CCCCC2)c2ccc(C(=O)O)cc21 [Example 1-278, 5-[2-(azocan-1-yl)ethyl]-13-cyclohexyl-3-methyl-6,7-dihydro-5H-benzo[5,6][1,4]diazepino[7,1-a]indole-10-carboxylic acid dihydrochloride] | < 100 |
| CC(=O)N1CCC(N(C)CCN2CCn3c(c(C4CCCCC4)c4ccc(C(=O)O)cc43)-c3ccccc32)CC1 [Example 1-279, 5-{2-[N-(1-acetylpiperidin-4-yl)-N-methylamino]ethyl}-13-cyclohexyl-6,7-dihydro-5H-benzo[5,6][1,4]diazepino[7,1-a]indole-10-carboxylic acid monohydrochloride] | < 100 |
| CN(CCN1CCn2c(c(C3CCCCC3)c3ccc(C(=O)O)cc32)-c2ccccc21)C1CCN(S(C)(=O)=O)CC1 [Example 1-280, 13-cyclohexyl-5-{2-[N-(1-methanesulfonylpiperidin-4-yl)-N-methylamino]ethyl}-6,7-dihydro-5H-benzo[5,6][1,4]diazepino[7,1-a]indole-10-carboxylic acid] | < 100 |
| COC(=O)N1CCC(N(C)CCN2CCn3c(c(C4CCCCC4)c4ccc(C(=O)O)cc43)-c3ccccc32)CC1 [Example 1-281, 13-cyclohexyl-5-{2-[N-(1-methoxycarbonylpiperidin-4-yl)-N-methylamino]ethyl}-6,7-dihydro-5H-benzo[5,6][1,4]diazepino[7,1-a]indole-10-carboxylic acid monohydrochloride] | < 100 |
| CN1CCC(N(C)CCN2CCn3c(c(C4CCCCC4)c4ccc(C(=O)O)cc43)-c3ccccc32)CC1 [Example 1-282, 13-cyclohexyl-5-{2-[N-methyl-N-(1-methylpiperidin-4-yl)amino]ethyl}-6,7-dihydro-5H-benzo[5,6][1,4]diazepino[7,1-a]indole-10-carboxylic acid dihydrochloride] | < 100 |
| CN(CCN1CCn2c(c(C3CCCCC3)c3ccc(C(=O)O)cc32)-c2ccccc21)C1CCOCC1 [Example 1-283, 13-cyclohexyl-5-{2-[N-methyl-N-(tetrahydropyran-4-yl)amino]ethyl}-6,7-dihydro-5H-benzo[5,6][1,4]diazepino[7,1-a]indole-10-carboxylic acid] | < 100 |
| CN1CCC(N(C)CCN2CCn3c(c(C4CCCCC4)c4ccc(C(=O)O)cc43)-c3ccccc32)C1 (centres unmarked) [Example 1-284, 13-cyclohexyl-5-{2-[N-methyl-N-(1-methylpyrrolidin-3-yl)amino]ethyl}-6,7-dihydro-5H-benzo[5,6][1,4]diazepino[7,1-a]indole-10-carboxylic acid dihydrochloride] | < 100 |
| CN(CCN1CCn2c(c(C3CCCCC3)c3ccc(C(=O)O)cc32)-c2ccccc21)C1CCNC1 (centres unmarked) [Example 1-285, 13-cyclohexyl-5-{2-[N-methyl-N-(pyrrolidin-3-yl)amino]ethyl}-6,7-dihydro-5H-benzo[5,6][1,4]diazepino[7,1-a]indole-10-carboxylic acid dihydrochloride] | < 100 |
| CCN1CCCN(CCN2CCn3c(c(C4CCCCC4)c4ccc(C(=O)O)cc43)-c3ccccc32)CC1 [Example 1-286, 13-cyclohexyl-5-[2-(4-ethyl-1,4-diazepan-1-yl)ethyl]-6,7-dihydro-5H-benzo[5,6][1,4]diazepino[7,1-a]indole-10-carboxylic acid trihydrochloride] | < 100 |
| Cc1ccc2c(c1)N(CCC1CCCCN1C)CCn1c-2c(C2CCCCC2)c2ccc(C(=O)O)cc21 (centres unmarked) [Example 1-287, 13-cyclohexyl-3-methyl-5-[2-(1-methylpiperidin-2-yl)ethyl]-6,7-dihydro-5H-benzo[5,6][1,4]diazepino[7,1-a]indole-10-carboxylic acid dihydrochloride] | < 100 |
| CCN1CCCCC1CCN1CCn2c(c(C3CCCCC3)c3ccc(C(=O)O)cc32)-c2ccc(C)cc21 (centres unmarked) [Example 1-288, 13-cyclohexyl-5-[2-(1-ethylpiperidin-2-yl)ethyl]-3-methyl-6,7-dihydro-5H-benzo[5,6][1,4]diazepino[7,1-a]indole-10-carboxylic acid dihydrochloride] | < 100 |
| CSc1ccc2c(c1)N(CCN1CCCCCC1)CCn1c-2c(C2CCCCC2)c2ccc(C(=O)O)cc21 [Example 1-289, 5-[2-(azepan-1-yl)ethyl]-13-cyclohexyl-3-methylsulfanyl-6,7-dihydro-5H-benzo[5,6][1,4]diazepino[7,1-a]indole-10-carboxylic acid dihydrochloride] | < 100 |
| CCC1CN(CCN2CCn3c(c(C4CCCCC4)c4ccc(C(=O)O)cc43)-c3ccc(Cl)cc32)CCO1 (centres unmarked) [Example 1-290, 3-chloro-13-cyclohexyl-5-[2-(2-ethylmorpholin-4-yl)ethyl]-6,7-dihydro-5H-benzo[5,6][1,4]diazepino[7,1-a]indole-10-carboxylic acid dihydrochloride] | < 100 |
| CCC1CN(CCN2CCn3c(c(C4CCCCC4)c4ccc(C(=O)O)cc43)-c3ccc(C)cc32)CCO1 (centres unmarked) [Example 1-291, 13-cyclohexyl-5-[2-(2-ethylmorpholin-4-yl)ethyl]-3-methyl-6,7-dihydro-5H-benzo[5,6][1,4]diazepino[7,1-a]indole-10-carboxylic acid dihydrochloride] | < 100 |
| CCC1COCCN1CCN1CCn2c(c(C3CCCCC3)c3ccc(C(=O)O)cc32)-c2ccc(C)cc21 (centres unmarked) [Example 1-292, 13-cyclohexyl-5-[2-(3-ethylmorpholin-4-yl)ethyl]-3-methyl-6,7-dihydro-5H-benzo[5,6][1,4]diazepino[7,1-a]indole-10-carboxylic acid dihydrochloride] | < 100 |
| COCC1CCCN(CCN2CCn3c(c(C4CCCCC4)c4ccc(C(=O)O)cc43)-c3ccc(Cl)cc32)C1 (centres unmarked) [Example 1-293, 3-chloro-13-cyclohexyl-5-[2-(3-methoxymethylpiperidin-1-yl)ethyl]-6,7-dihydro-5H-benzo[5,6][1,4]diazepino[7,1-a]indole-10-carboxylic acid dihydrochloride] | < 100 |
| CCc1ccc2c(c1)N(CCN1CCCCC1)CCn1c-2c(C2CCCCC2)c2ccc(C(=O)O)cc21 [Example 1-295, 13-cyclohexyl-3-ethyl-5-[2-(piperidin-1-yl)ethyl]-6,7-dihydro-5H-benzo[5,6][1,4]diazepino[7,1-a]indole-10-carboxylic acid dihydrochloride] | < 100 |
| CC(C)c1ccc2c(c1)N(CCN1CCCCC1)CCn1c-2c(C2CCCCC2)c2ccc(C(=O)O)cc21 [Example 1-296, 13-cyclohexyl-3-isopropyl-5-[2-(piperidin-1-yl)ethyl]-6,7-dihydro-5H-benzo[5,6][1,4]diazepino[7,1-a]indole-10-carboxylic acid dihydrochloride] | < 100 |
| CSc1ccc2c(c1)N(CCCN1CCCCC1)CCn1c-2c(C2CCCCC2)c2ccc(C(=O)O)cc21 [Example 1-297, 13-cyclohexyl-3-methylsulfanyl-5-[3-(piperidin-1-yl)propyl]-6,7-dihydro-5H-benzo[5,6][1,4]diazepino[7,1-a]indole-10-carboxylic acid dihydrochloride] | < 100 |
| Cc1ccc2c(c1)N(CCCN1CCCCC1)CCn1c-2c(C2CCCCC2)c2ccc(C(=O)O)cc21 [Example 1-298, 13-cyclohexyl-3-methyl-5-[3-(piperidin-1-yl)propyl]-6,7-dihydro-5H-benzo[5,6][1,4]diazepino[7,1-a]indole-10-carboxylic acid dihydrochloride] | < 100 |
| Cc1ccc2c(c1)N(CCCN1CCCC1)CCn1c-2c(C2CCCCC2)c2ccc(C(=O)O)cc21 [Example 1-299, 13-cyclohexyl-3-methyl-5-[3-(pyrrolidin-1-yl)propyl]-6,7-dihydro-5H-benzo[5,6][1,4]diazepino[7,1-a]indole-10-carboxylic acid dihydrochloride] | < 100 |

Same assay, conditions: 25° C., 90 min; [5,6-3H]UTP incorporation into RNA; read-out: HCV polymerase inhibitory activity IC50

| SMILES | IC50 [nM] |
| --- | --- |
| COCC1CCCN(CCN2CCn3c(c(C4CCCCC4)c4ccc(C(=O)O)cc43)-c3ccc(C)cc32)C1 (centres unmarked) [Example 1-294, 13-cyclohexyl-5-[2-(3-methoxymethylpiperidin-1-yl)ethyl]-3-methyl-6,7-dihydro-5H-benzo[5,6][1,4]diazepino[7,1-a]indole-10-carboxylic acid dihydrochloride] | < 100 |
